Reference: patent US8946438B2, “Benzamides, production thereof, and use thereof as medicaments” (Boehringer Ingelheim International GmbH, priority 2008, dated 2015)

Molecular target: p38 MAP-kinase (Homo sapiens, UniProt Q16539)
Assay: Enzymatic assay: inhibition of p38 MAP-kinase (phosphorylation of GST-tagged ATF2, chemoluminescence bead readout)
Type: biochemical
Settings: inhibitor 1 μM; activated p38 MAP-kinase 1 nM; 4 h preincubation; ATP 100 μM; ATF2 10 nM; read-out: % inhibitory effect at 1 μM
Procedure, shortened: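 Activated human p38 MAP-kinase (1 nM) preincubated 4 h at ambient temperature with compound at 1 μM in HEPES pH 7, MgCl2, DTT, Tween20. Then reacted 1 h with GST-ATF2 (10 nM) and ATP (100 μM). Phospho-ATF2 read by bead chemoluminescence at 520-620 nm, given as % inhibition at 1 μM versus kinase-free background.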

Sequence of p38 MAP-kinase (Q16539 whole entry): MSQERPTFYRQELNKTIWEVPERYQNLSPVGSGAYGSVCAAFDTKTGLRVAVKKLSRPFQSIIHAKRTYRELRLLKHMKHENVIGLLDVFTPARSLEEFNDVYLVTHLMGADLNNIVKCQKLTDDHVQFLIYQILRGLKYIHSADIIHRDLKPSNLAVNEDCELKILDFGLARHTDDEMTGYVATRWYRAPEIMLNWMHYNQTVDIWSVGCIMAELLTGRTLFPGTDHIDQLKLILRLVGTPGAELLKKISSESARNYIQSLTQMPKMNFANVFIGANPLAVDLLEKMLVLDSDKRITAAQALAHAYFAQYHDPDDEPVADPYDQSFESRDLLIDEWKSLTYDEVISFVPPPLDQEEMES

SMILES	inhibition at 1 µM [%]
COc1c(C[S+](C)[O-])cc(C(C)(C)C)cc1NC(=O)c1ccc(C)c(Oc2ccnc(CC3CCNCC3)c2)c1 (centres unmarked) [5(42), N-(5-tert-butyl-2-methoxy-3-methylsulphinylmethyl-phenyl)-4-methyl-3-(2-piperidin-4-ylmethyl-pyridin-4-yloxy)-benzamide]	99.5
COc1c(NC(=O)c2ccc(Cl)c(Oc3ccnc(CN4CCCN(C)CC4)n3)c2)cc(C(C)(C)C)cc1NS(C)(=O)=O [8(35), N-(5-tert-butyl-3-methanesulphonylamino-2-methoxy-phenyl)-4-chloro-3-[2-(4-methyl-[1,4]diazepan-1-ylmethyl)-pyrimidin-4-yloxy]-benzamide]	98.6
CNCc1cc(Oc2cc(C(=O)Nc3cc(C(C)(C)C)cc(NS(C)(=O)=O)c3OC)ccc2C)ncn1 [8(1), N-(5-tert-butyl-3-methanesulphonylamino-2-methoxy-phenyl)-4-methyl-3-(6-methylaminomethyl-pyrimidin-4-yloxy)-benzamide]	55.9
COc1c(NC(=O)c2ccc(C)c(Oc3ccnc(CN4CCNC(=O)C4)n3)c2)cc(C(C)(C)C)cc1NS(C)(=O)=O [8(5), N-(5-tert-butyl-3-methanesulphonylamino-2-methoxy-phenyl)-4-methyl-3-[2-(3-oxo-piperazin-1-ylmethyl)-pyrimidin-4-yloxy]-benzamide]	95.8
CCc1ccc(C(=O)Nc2cc(C(C)(C)C)cc(NS(C)(=O)=O)c2OC)cc1Oc1ccnc(N2CCNCC2)n1 [5(15), N-(5-tert-butyl-3-methanesulphonylamino-2-methoxy-phenyl)-4-ethyl-5-(2-piperazin-1-yl-pyrimidin-4-yloxy)-benzamide]	96
COc1c(NC(=O)c2ccc(Cl)c(Oc3ccnc(NC4CCN(C)CC4)c3)c2)cc(C(C)(C)C)cc1NS(C)(=O)=O [Example 10, N-(5-tert-butyl-3-methanesulphonylamino-2-methoxy-phenyl)-4-chloro-3-[2-(1-methyl-piperidin-4-ylamino)-pyridin-4-yloxy]-benzamide]	99.6
COc1c(NC(=O)c2ccc(C)c(Oc3cc(N4CCNCC4)ncn3)c2)cc(C(C)(C)C)cc1NS(C)(=O)=O [5(1), N-(5-tert-butyl-3-methanesulphonylamino-2-methoxy-phenyl)-4-methyl-3-(6-piperazin-1-yl-pyrimidin-4-yloxy)-benzamide]	96.8
COc1c(NC(=O)c2ccc(Cl)c(Oc3ccnc(CC4CCNCC4)c3)c2)cc(C(C)(C)C)cc1NS(C)(=O)=O [5(29), N-(5-tert-butyl-3-methanesulphonylamino-2-methoxy-phenyl)-4-chloro-3-(2-piperidin-4-ylmethyl-pyridin-4-yloxy)-benzamide]	99
COc1c(NC(=O)c2ccc(C)c(Oc3ccnc(CC4CCNCC4)c3)c2)cc(C(C)(C)C)cc1NS(=O)(=O)C(C)C [5(50), N-[5-tert-butyl-2-methoxy-3-(propane-2-sulphonylamino)-phenyl]-4-methyl-3-(2-piperidin-4-ylmethyl-pyridin-4-yloxy)-benzamide]	99.6
COc1c(CSC)cc(C(C)(C)C)cc1NC(=O)c1ccc(C)c(Oc2ccnc(CC3CCNCC3)c2)c1 [5(40), N-(5-tert-butyl-2-methoxy-3-methylsulphanylmethyl-phenyl)-4-methyl-3-(2-piperidin-4-ylmethyl-pyridin-4-yloxy)-benzamide]	99.5
COc1c(NC(=O)c2ccc(C)c(Oc3ccnc(N(C)C4CCNC4)n3)c2)cc(C(C)(C)C)cc1NS(C)(=O)=O (centres unmarked) [5(24), N-(5-tert-butyl-3-methanesulphonylamino-2-methoxy-phenyl)-4-methyl-3-[2-(methyl-pyrrolidin-3-yl-amino)-pyrimidin-4-yloxy]-benzamide]	97.9
COc1c(NC(=O)c2ccc(Cl)c(Oc3cc(CC4CCN(C)CC4)ncn3)c2)cc(C(C)(C)C)cc1NS(C)(=O)=O [12(2), N-(5-tert-butyl-3-methanesulphonylamino-2-methoxy-phenyl)-4-chloro-3-[6-(1-methyl-piperidin-4-ylmethyl)-pyrimidin-4-yloxy]-benzamide]	98.7
COc1c(NC(=O)c2ccc(C)c(Oc3ccnc(N4CCNCC4)n3)c2)cc(C(C)(C)C)cc1NS(C)(=O)=O [Example 5, N-(5-tert-butyl-3-methanesulphonylamino-2-methoxy-phenyl)-4-methyl-3-(2-piperazin-1-yl-pyrimidin-4-yloxy)-benzamide x trifluoroacetic acid]	99
COc1c(CO)cc(C(C)(C)C)cc1NC(=O)c1ccc(C)c(Oc2ccnc(CN3CCN(C)CC3)n2)c1 [Example 13, N-(5-tert-butyl-3-hydroxymethyl-2-methoxy-phenyl)-4-methyl-3-[2-(4-methyl-piperazin-1-ylmethyl)-pyrimidin-4-yloxy]-benzamide]	98.2
CCCCC(=O)Nc1cc(C(C)(C)C)cc(NC(=O)c2ccc(C)c(Oc3ccnc(CC4CCNCC4)c3)c2)c1OC [11(2), N-(5-tert-butyl-2-methoxy-3-pentanoylamino-phenyl)-4-methyl-3-(2-piperidin-4-ylmethyl-pyridin-4-yloxy)-benzamide]	95.4
CNc1cc(Oc2cc(C(=O)Nc3cc(C(C)(C)C)cc(NS(C)(=O)=O)c3OC)ccc2C)ncn1 [3(1), N-(5-tert-butyl-3-methanesulphonylamino-2-methoxy-phenyl)-4-methyl-3-(6-methylamino-pyrimidin-4-yloxy)-benzamide]	97
COc1c(NC(=O)c2ccc(C)c(Oc3ccnc(CC4CCNCC4)n3)c2)cc(C(C)(C)C)cc1NS(C)(=O)=O [5(19), N-(5-tert-butyl-3-methanesulphonylamino-2-methoxy-phenyl)-4-methyl-3-(2-piperidin-4-ylmethyl-pyrimidin-4-yloxy)-benzamide]	99.7
COc1c(NC(=O)c2ccc(Cl)c(Oc3ccnc(NC4CCNCC4)c3)c2)cc(C(C)(C)C)cc1NS(C)(=O)=O [5(31), N-(5-tert-butyl-3-methanesulphonylamino-2-methoxy-phenyl)-4-chloro-3-[2-(piperidin-4-ylamino)-pyridin-4-yloxy]-benzamide]	99.4
COc1c(NC(=O)c2ccc(Cl)c(Oc3cc(CN4CCNCC4)ncn3)c2)cc(C(C)(C)C)cc1NS(C)(=O)=O [5(32), N-(5-tert-butyl-3-methanesulphonylamino-2-methoxy-phenyl)-4-chloro-3-(6-piperazin-1-ylmethyl-pyrimidin-4-yloxy)-benzamide]	97.9
COc1c(NC(=O)c2ccc(Cl)c(Oc3ccnc(CN4CCNCC4)n3)c2)cc(C(C)(C)C)cc1NS(C)(=O)=O [5(35), N-(5-tert-butyl-3-methanesulphonylamino-2-methoxy-phenyl)-4-chloro-3-(2-piperazin-1-ylmethyl-pyrimidin-4-yloxy)-benzamide]	98.3
COc1c(NC(=O)c2ccc(C)c(Oc3ccnc(CN4CCNCC4)c3)c2)cc(C(C)(C)C)cc1NS(C)(=O)=O [5(9), N-(5-tert-butyl-3-methanesulphonylamino-2-methoxy-phenyl)-4-methyl-3-(2-piperazin-1-ylmethyl-pyridin-4-yloxy)-benzamide x trifluoroacetic acid]	98.5
COc1c(NC(=O)c2cc(F)c(C)c(Oc3ccnc(CN4CCN(C)CC4)n3)c2)cc(C(C)(C)C)cc1NS(C)(=O)=O [7(3), N-(5-tert-butyl-3-methanesulphonylamino-2-methoxy-phenyl)-3-fluoro-4-methyl-5-[2-(4-methyl-piperazin-1-ylmethyl)-pyrimidin-4-yloxy]-benzamide]	98.8
COc1c(NC(=O)c2ccc(Br)c(Oc3ccnc(N4CCNCC4)n3)c2)cc(C(C)(C)C)cc1NS(C)(=O)=O [5(11), N-(5-tert-butyl-3-methanesulphonylamino-2-methoxy-phenyl)-4-bromo-3-(2-piperazin-1-yl-pyrimidin-4-yloxy)-benzamide]	98.4
COc1c(NC(=O)c2cc(F)c(C)c(Oc3ccnc(N4CCNCC4)n3)c2)cc(C(C)(C)C)cc1NS(C)(=O)=O [5(13), N-(5-tert-butyl-3-methanesulphonylamino-2-methoxy-phenyl)-3-fluoro-4-methyl-5-(2-piperazin-1-yl-pyrimidin-4-yloxy)-benzamide]	98.2
COc1ccc(C(=O)Nc2cc(C(C)(C)C)cc(NS(C)(=O)=O)c2OC)cc1Oc1ccnc(N2CCNCC2)n1 [5(8), N-(5-tert-butyl-3-methanesulphonylamino-2-methoxy-phenyl)-4-methoxy-3-(2-piperazin-1-yl-pyrimidin-4-yloxy)-benzamide]	98.9
COc1c(NC(=O)c2ccc(C)c(Oc3cc(CN4CCNCC4)ncn3)c2)cc(C(C)(C)C)cc1NS(C)(=O)=O [5(7), N-(5-tert-butyl-3-methanesulphonylamino-2-methoxy-phenyl)-4-methyl-3-(6-piperazin-1-ylmethyl-pyrimidin-4-yloxy)-benzamide]	97.8
CCCCS(=O)(=O)Nc1cc(C(C)(C)C)cc(NC(=O)c2ccc(C)c(Oc3ccnc(CC4CCNCC4)c3)c2)c1OC [11(1), N-[3-(butan-1-sulphonylamino)-5-tert-butyl-2-methoxy-phenyl]-4-methyl-3-(2-piperidin-4-ylmethyl-pyridin-4-yloxy)-benzamide]	99.4
COc1c(NC(=O)c2ccc(C)c(Oc3ccnc(N4CC[C@@H](N(C)C)C4)n3)c2)cc(C(C)(C)C)cc1NS(C)(=O)=O [4(6), (R)-N-(5-tert-butyl-3-methanesulphonylamino-2-methoxy-phenyl)-3-[2-(3-dimethylamino-pyrrolidin-1-yl)-pyrimidin-4-yloxy]-4-methyl-benzamide]	98
CNCc1nccc(Oc2cc(C(=O)Nc3cc(C(C)(C)C)cc(NS(C)(=O)=O)c3OC)ccc2C)n1 [8(4), N-(5-tert-butyl-3-methanesulphonylamino-2-methoxy-phenyl)-4-methyl-3-(2-methylaminomethyl-pyrimidin-4-yloxy)-benzamide]	66
